Data reported in patent US4402978A, “Gastro-protecting activity of substituted derivatives of 4-phenyl-4-oxo-2-hydroxy-butanoic acid” (Roussel-Uclaf, priority 1980, dated 1983).

Columns and labels:
[1] = tested on: ulcers in rats in the stomach region; assay: Determination of anti-ulcer activity (Shay method, ulcers induced in rats by pyloric ligation); assay type: in vivo; settings: via the mouth, 16 hours after treatment
Description: (1) Determination of anti-ulcer activity
The method used is described by Shay et al. in Gastroenterology, 5, 43, (1945).
The Shay method consists of inducing ulcers in rats in the stomach region by pyloric ligation.
The animals are anesthetized with ether. A longitudinal incision is made, 1 cm below the sternum; the glandular part of the stomach and the duodenum are exposed, and a ligature is placed several mm below the pylorus. The muscular sheet is left as it is and the skin is sutured with 2 clips.
The animals immediately receive the dispersive or the substance to be studied, via the mouth, in a volume of 0.5 ml/100 g and are kept without food or drink until sacrificed, 16 hours after the treatment, by carotid bleeding.
Before removal of the stomach, a ligature is placed above the cardia.
The gastric liquid is collected for measurement of pH.
The stomach is then opened along the major curvature, rinsed with physiological serum, and spread out on millimeter graph paper to be examined under a binocular magnifier.
The severity of the lesions, graded 0 to 4, is macroscopically evaluated for each stomach.
For each group of rats, the mean intensity of the ulcerations is determined, and the protection is calculated as the ratio of the mean index for the treated group to the mean index for the control group.
The pH values of the gastric liquid are likewise determined for the treated and control animals.

[2] = Determination of Acute Toxicity (oral LD50 in mice); settings: mouse, in vivo
Description: (2) Determination of Acute Toxicity
The lethal dose LD50 of the derivatives of certain examples were evaluated after administration by the oral route in mice.

SMILES	Ulcerations, % of protection with respect to controls ([1]; 0.8 mg/kg) [%]	pH of gastric liquid, treated animals ([1]; 0.8 mg/kg)	Ulcerations, % of protection with respect to controls ([1]; 4 mg/kg) [%]	pH of gastric liquid, treated animals ([1]; 4 mg/kg)	Ulcerations, % of protection with respect to controls ([1]; 20 mg/kg) [%]	pH of gastric liquid, treated animals ([1]; 20 mg/kg)	LD50 [2] [mg/kg]	Ulcerations, % of protection with respect to controls ([1]; 100 mg/kg) [%]	pH of gastric liquid, treated animals ([1]; 100 mg/kg)	Ulcerations, % of protection with respect to controls ([1]; 1 mg/kg) [%]	pH of gastric liquid, treated animals ([1]; 1 mg/kg)
COc1ccc(C(=O)CC(O)C(=O)O)cc1OC (stereo not shown) [Example 1, 4-(3,4-dimethoxyphenyl)-4-oxo-2-hydroxy-butanoic acid]	27	3.4	72	3.0	72	2.3	> 1000	–	–	–	–
O=C(CC(O)C(=O)O)c1ccc(Cl)cc1 (stereo not shown) [Example 2, 4-(4-chlorophenyl)-4-oxo-2-hydroxy-butanoic acid]	–	–	25	3.5	72	3.0	> 1000	–	–	–	–
O=C(CC(O)C(=O)O)c1ccc(Cl)c(Cl)c1 (stereo not shown) [Example 3, 4-(3,4-dichlorophenyl)-4-oxo-2-hydroxy-butanoic acid]	–	–	–	–	36	3.2	> 1000	91	4.2	–	–
O=C(CC(O)C(=O)O)c1ccc(Cl)cc1Cl (stereo not shown) [Example 4, 4-(2,4-dichlorophenyl)-4-oxo-2-hydroxy-butanoic acid]	–	–	–	–	9	2.9	> 1000	91	4.4	–	–
O=C(CC(O)C(=O)O)c1ccc(Br)cc1 (stereo not shown) [Example 5, 4-(4-bromophenyl)-4-oxo-2-hydroxy-butanoic acid]	–	–	–	–	40	3.1	> 1000	95	3.4	–	–
O=C(CC(O)C(=O)O)c1ccc([N+](=O)[O-])cc1 (stereo not shown) [Example 8, 4-(4-nitrophenyl)-4-oxo-2-hydroxy-butanoic acid]	–	–	–	–	–	–	> 1000	49	3.0	–	–
COc1cc(OC)cc(C(=O)CC(O)C(=O)O)c1 (stereo not shown) [Example 11, 4-(3,5-dimethoxyphenyl)-4-oxo-2-hydroxy-butanoic acid]	–	–	50	2.0	60	2.0	> 1000	88	3.0	53	1.9
O=C(CC(O)C(=O)O)c1ccccc1[N+](=O)[O-] (stereo not shown) [Example 13, 4-(2-nitrophenyl)-4-oxo-2-hydroxy-butanoic acid]	–	–	–	–	–	–	> 1000	–	–	–	–
